Assay results reported in patent publication US4022842A, “Bibenzyl compounds” (Rikagaku Kenkyusho, priority 1972, dated 1977).
Converted amounts (≈) assume the structure as drawn. Read-outs that look alike come from different tables or passages of the source. Blank lines part the entries; values can stand above or below the compound they belong to.

Experiments:
[1] = system: oats coleoptile; assay: Growth inhibition in oats coleoptile sections (Example 4, Table 1); set-up: species or system Avena sativa L.; conditions: for IC50: Avena sativa
Experimental: A compound illustrated in Table 1 was dissolved in dimethylformamide and the solution was diluted to desired concentrations with water containing 2% of sucrose. In control test dimethylformamide was applied in the same amount as that of treated groups. This solvent gives no phytotoxicity to plants to be tested if the content in water is 1% or less. The prepared liquors were poured into culture dishes of 3 cm diameter, the amount of the medium poured into one dish being 2 ml. Sections of 5 mm in length cut from a coleoptiles of oats (Avena sativa L.) which have been grown in the dark were floated on the test media in the culture dishes and cultured at 25° C. for 20 hours in the dark to determine the growth-inhibition degrees.
In the control group, the coleoptile elongated by about 5 mm during the experiment.

[2] = system: lettuce seeds; assay: Inhibition of germination of lettuce seeds, 50% inhibition (Example 5, Table 2); assay type: in vivo, Lactuca sativa L.; conditions: 1% dimethylformamide; for IC50: Lactuca sativa, 48 h
Experimental: Every compound shown in Table 1 was respectively dissolved at various concentrations in distilled water containing 1% of dimethylformamide, and 3 ml each of the resulting solutions was poured into a culture dish of 6 cm diameter in which 2 filter papers were spread. About 100 seeds (non-dormant ware head seeds) of lettuce (Lactuca sativa L.) were shown in each dish, and they were allowed to stand at 23° C. in the dark for 2 days. Germination percentages were determined and plotted against the concentrations of the compound tested. From the graphs obtained the concentration to give 50% inhibition was determined. The definition of inhibition rate is given in the following formula: [formula] Usually the germination percentage of the untreated control lot was about 95%.

[3] = Solubility; assay type: physicochemical; conditions: for Solubility in ordinary solvents: ethanol, acetone, ethyl acetate and ether
[4] = system: Bulbils of yam; assay: Germination (sprouting) of yam bulbils awakened from dormancy (Example 6, Table 3); assay type: in vivo, Dioscorea batatas Decne.; conditions: 300 μg/ml; 23° C., light of 1800 luxes, 2 weeks; untreated control 80
Experimental: Bulbils (fleshy buds for breeding formed on stems) of yam (Dioscorea batatas Decne.) were stored at a low temperature of 5° C. for 3 months and awakened from hibernation. These fleshy buds were treated with the agricultural chemical of this invention in the following manner to lead them to hibernation again.
Every active ingredient compound of this invention shown in the following Table 3 was dissolved emulsified in distilled water containing 1% of dimethylformamide and 0.05% of Tween 20. 25 ml of the resulting liquor was poured into a culture dish of 9 cm diameter in which absorbent cotton was spread, and 30 of bulbis which had been subjected to the above low temperature treatment and awakened from dormancy were sown on the dish and they were allowed to sprout at 23° C. under light of 1800 luxes for 2 weeks.

[5] = system: Seedings of lettuce; assay: Growth inhibition of lettuce seedling stems (hypocotyls) (Example 10, Table 7); assay type: in vivo, Lactuca sativa L.; conditions: Lactuca sativa, 72 h, read-out: Growth Inhibition Ratio
Experimental: 4-Hydroxy-2,6,7-trimethoxyphenanthrene or 3,3'-dihydroxy-5-methoxybibenzyl was dissolved in acetone, and the resulting solution was placed in culture dishes in which 2 layers of filter paper were spread so as to give required amounts of the test compound. After the acetone was removed by evaporation, Hoagland's nutrient solution containing 0.05% of Tween 20 was poured into the culture dishes. Seedings of lettuce (Lactuca sativa L.), which had been germinated in a different place, were transplanted to the culture dishes and cultivation was carried out in a light place at 23° C. for 3 days. Then, the lengths of the stems (hypocotyls) were measured to determined the growth inhibition ratio.

[6] = system: bulbils of yam; assay: Sprouting of yam bulbils in dark or light (Example 7, Table 4); assay type: in vivo, Discorea batatas Decne.; conditions: 23° C., 20 days
Experimental: 4-Hydroxy-2,6,7-trimethoxyphenanthrene and 3,3'-dihydroxy-5-methoxybibenzylwere respectively dissolved at various concentrations in water containing 0.05% of Tween 20, and 30 ml each of the resulting solutions were poured into culture dishes of 9 cm in diameter containing 1 g of absorbent cotton.
Thirty bulbils of yam (Discorea batatas Decne.) which had been awakened from dormancy were planted in each of the so arranged culture dishes, and the germination test was carried out at 23° C. either in the dark or in the light. […]

[7] = system: oats coleoptiles; assay: Growth inhibition of oats coleoptile pieces with indoleacetic acid (Example 9, Table 6); set-up: species or system Avena sativa L.; conditions: Avena sativa, read-out: Growth Inhibition ratio
Experimental: Oats (Avena sativa L.) were allowed to germinate under a weak red light at 25° C. and 3 days after germination sections of […] in length were cut from coleoptiles about 25 mm in length. 4-Hydroxy-2,6,7-trimethoxyphenanthrene or 3,3-dihydroxy-5-methoxybibenzyl was dissolved in a culture medium comprising 0.1 mg/l of indoleacetic acid, 0.05% of Tween 20 and 2% of sucrose, the balance being water. Ten of the above cut-out coleoptile pieces were flated on the resulting culture medium and cultivation was conducted at 25° C. for 18 hours to examine the growth state and the results shown in Table 6 were obtained.

[8] = system: seeds of a lettuce; assay: Germination ratio of lettuce seeds (Example 8, Table 5); assay type: in vivo, Lactuca sativa L.; conditions: for Germination Ratio: 23° C., 2 days, untreated control 90; for Germination after washing and transplanting: washed with water, transplanted on culture dish free of compound
Experimental: 4-Hydroxy-2,6,7-trimethoxyphenanthrene and 3,3'-dihydroxy-5-methoxybibenzylwere respectively dissolved in water containing 0.05% of Tween 20 and 1% of dimethylformamide, and each of the resulting solution was poured into a culture dish, 6 cm in diameter, in which 2 layers of filter paper were spread to form a germination bed. 100 seeds of a lettuce (Lactuca sativa L.) were sown on the germination bed and cultivation was conducted for 2 days at 23° C. […] [formula]

[9] = 5 mm sections, 25° C., 20 hours, dark, read-out: Growth Inhibition in oats coleoptile (concentration giving 50% inhibition)
[10] = 23° C., dark, 2 days, read-out: Inhibition of Germination of Lettuce Seeds, Concentration Giving 50% Inhibition
[11] = 100 mg/l, dark place, untreated control 56
[12] = 100 mg/l, light place, untreated control 44
[13] = 300 mg/l, dark place, untreated control 56
[14] = 300 mg/l, light place, untreated control 44
[15] = 1000 mg/l, dark place, untreated control 56
[16] = 20 h, read-out: Growth Inhibition in oats coleoptile (concentration giving 50% inhibition), 5 mm sections, 25° C., 20 hours, dark
[17] = read-out: Inhibition of Germination of Lettuce Seeds, Concentration Giving 50% Inhibition, 23° C., dark, 2 days

SMILES: COc1cc(O)cc(CCc2ccccc2)c1 [Compound 1, 3-hydroxy-5-methoxybibenzyl]
IC50 [1, 9]: 80 µg/mL (≈ 350 µM)
IC50 [2, 10]: 60 µg/mL (≈ 263 µM)

Solubility in ordinary solvents [3]: Soluble
Solubility in hexane [3]: insoluble
Solubility in water [3]: insoluble
SMILES: COc1cc(CCc2ccccc2O)c(O)c(OC)c1 [Compound 2, 2,2'-dihydroxy-3,5-dimethoxybibenzyl]
IC50 [1, 9]: 100 µg/mL (≈ 365 µM)
IC50 [2, 10]: 100 µg/mL (≈ 365 µM)

SMILES: COc1cc(CCc2ccc(O)cc2)cc(O)c1OC [Compound 3, 3,4'-dihydroxy-4,5-dimethoxybibenzyl]
Germination Ratio [4]: 42%
IC50 [1, 9]: 150 µg/mL (≈ 547 µM)
IC50 [2, 10]: 120 µg/mL (≈ 437 µM)

SMILES: CC(=O)c1cc(CCc2ccccc2)c(O)cc1O [Compound 4, 4,6-dihydroxy-3-acetyldibenzyl]
Germination Ratio [4]: 63%
IC50 [1, 9]: 90 µg/mL (≈ 351 µM)
IC50 [2, 10]: 90 µg/mL (≈ 351 µM)

SMILES: Oc1ccc(CCc2ccccc2)c(O)c1 [Compound 5, 2,4-dihydroxybibenzyl]
IC50 [1, 9]: 110 µg/mL (≈ 513 µM)
IC50 [2, 10]: 90 µg/mL (≈ 420 µM)

SMILES: Oc1c(Cl)cc(Cl)cc1CCc1cc(Cl)cc(Cl)c1O [Compound 6, 3,5,3',5'-tetrachloro-2,2'-dihydroxybibenzyl]
Germination Ratio [4]: 15%
IC50 [1, 9]: 30 µg/mL (≈ 85.2 µM)
IC50 [2, 10]: 10 µg/mL (≈ 28.4 µM)

SMILES: COc1ccc(CCc2cc(O)cc(O)c2)cc1O [Compound 7, 3,3',5'-trihydroxy-4-methoxybibenzyl]
IC50 [1, 9]: 75 µg/mL (≈ 288 µM)
IC50 [2, 10]: 75 µg/mL (≈ 288 µM)

Solubility in ordinary solvents [3]: Soluble
Solubility in hexane [3]: insoluble
Solubility in water [3]: difficultly soluble
Blight of germination-inhibited seeds ([8]; in vivo): not blighted
SMILES: COc1cc(O)cc(CCc2cccc(O)c2)c1 [Compound 8, 3,3'-dihydroxy-5-methoxybibenzyl]
Germination Ratio [4]: 50%
inhibition at 30 µg/mL ([5]; 30 mg/l, stem (hypocotyl) length, light place, 23° C., 3 days): 21%
inhibition at 100 µg/mL ([5]; 100 mg/l, stem (hypocotyl) length, light place, 23° C., 3 days): 48%
inhibition at 300 µg/mL ([5]; 300 mg/l, stem (hypocotyl) length, light place, 23° C., 3 days): 86%
Sprouting Ratio [6, 11]: 56%
Sprouting Ratio [6, 12]: 23%
Sprouting Ratio [6, 13]: 22%
Sprouting Ratio [6, 14]: 18%
Sprouting Ratio [6, 15]: 14%
inhibition at 30 µg/mL ([7]; 30 mg/l, 0.1 mg/l indoleacetic acid, 25° C., 18 hours): 39%
inhibition at 100 µg/mL ([7]; 100 mg/l, 0.1 mg/l indoleacetic acid, 25° C., 18 hours): 76%
inhibition at 300 µg/mL ([7]; 300 mg/l, 0.1 mg/l indoleacetic acid, 25° C., 18 hours): 84%
IC50 [1, 9]: 100 µg/mL (≈ 409 µM)
IC50 [2, 10]: 80 µg/mL (≈ 327 µM)
Germination Ratio ([8]; 30 mg/l): 52%
Germination Ratio ([8]; 100 mg/l): 26%
Germination Ratio ([8]; 300 mg/l): 0%
Germination after washing and transplanting [8]: complete germination

SMILES: COc1cc(OC)c2c(ccc3ccc(O)cc32)c1 [Compound 9, 2,4-dimethoxy-6-hydroxyphenanthrene]
IC50 [1, 16]: 130 µg/mL (≈ 511 µM)
IC50 [2, 17]: 100 µg/mL (≈ 393 µM)

SMILES: COc1cc(O)c2c(ccc3cc(OC)c(OC)cc32)c1 [Compound 10, 4-hydroxy-2,6,7-trimethoxyphenanthrene]
Germination Ratio [4]: 45%
inhibition at 30 µg/mL [5]: 13%
inhibition at 100 µg/mL [5]: 45%
inhibition at 300 µg/mL [5]: 72%
Sprouting Ratio [6, 11]: 46%
Sprouting Ratio [6, 12]: 14%
Sprouting Ratio [6, 13]: 30%
Sprouting Ratio [6, 14]: 8%
Sprouting Ratio [6, 15]: 23%
inhibition at 30 µg/mL ([7]; 18 h): 16%
inhibition at 100 µg/mL ([7]; 18 h): 44%
inhibition at 300 µg/mL ([7]; 18 h): 79%
IC50 [1, 16]: 90 µg/mL (≈ 317 µM)
IC50 [2, 17]: 60 µg/mL (≈ 211 µM)
Germination Ratio ([8]; 30 mg/l): 78%
Germination Ratio ([8]; 100 mg/l): 43%
Germination Ratio ([8]; 300 mg/l): 10%
Blight of germination-inhibited seeds ([8]; after treatment): not blighted
Germination after washing and transplanting [8]: complete germination

SMILES: COc1cc2ccc3cc(O)c(OC)c(OC)c3c2cc1O [Compound 11, 2,6-dihydroxy-3,4,7-trimethoxyphenanthrene]
Germination Ratio [4]: 50%
IC50 [1, 9]: 100 µg/mL (≈ 333 µM)
IC50 [2, 10]: 100 µg/mL (≈ 333 µM)

SMILES: COc1cc2ccc3cc(O)c(O)cc3c2c(O)c1OC [Compound 12, 4,6,7-trihydroxy-2,3-dimethoxyphenanthrene]
IC50 [1, 16]: 120 µg/mL (≈ 419 µM)
IC50 [2, 17]: 140 µg/mL (≈ 489 µM)

SMILES: COc1cc(OC)c2c(ccc3ccc(O)cc32)c1 [Compound 13, 2,4-dimethoxy-6-hydroxyphenanthrene]
Germination Ratio [4]: 60%
Growth Inhibition in oats coleoptile (concentration giving 50% inhibition) ([1]; 5 mm sections, 25° C., 20 hours, dark): 90 µg/mL
Inhibition of Germination of Lettuce Seeds, Concentration Giving 50% Inhibition ([2]; 23° C., dark, 2 days): 80 µg/mL

SMILES: CC(=O)c1cc2ccccc2c2cc(Cl)ccc12 [Compound 14, 6-chloro-9-acetylphenanthrene]
Germination Ratio [4]: 70%
IC50 [1, 16]: 70 µg/mL (≈ 275 µM)
IC50 [2, 17]: 30 µg/mL (≈ 118 µM)

SMILES: CC(=O)c1ccc2c(c1)CCc1cc(O)c(C(C)=O)cc1-2 [Compound 15, 7-hydroxy-2,6-diacetyl-9,10-dihydrophenanthrene]
IC50 [1, 9]: 130 µg/mL (≈ 464 µM)
IC50 [2, 10]: 80 µg/mL (≈ 285 µM)

SMILES: Oc1cc(O)c2c(c1)CCc1cc(O)c(O)cc1-2 [Compound 16, 2,3,5,7-tetrahydroxy-9,10-dihydrophenanthrene]
IC50 [1, 9]: 150 µg/mL (≈ 614 µM)
IC50 [2, 10]: 160 µg/mL (≈ 655 µM)

SMILES: COc1cc2c(cc1O)CCc1cc(OC)c(OC)c(O)c1-2 [Compound 17, 4,7-dihydroxy-2,3,6-trimethoxy-9,10-dihydrophenanthrene]
Germination Ratio [4]: 40%
IC50 [1, 9]: 200 µg/mL (≈ 662 µM)
IC50 [2, 10]: 120 µg/mL (≈ 397 µM)

SMILES: COc1cc(O)c2c(c1)CCc1cc(O)c(OC)cc1-2 [Compound 18, 4,7-dihydroxy-2,6-dimethoxy-9,10-dihydrophenanthrene]
IC50 [1, 9]: 180 µg/mL (≈ 661 µM)
IC50 [2, 10]: 160 µg/mL (≈ 588 µM)
